Laboratory results taken from US20250026748A1, “N-(5-SUBSTITUTED-[(1,3,4-THIADIAZOLYL) OR (THIAZOLYL)])(SUBSTITUTED)CARBOXAMIDE COMPOUNDS AND USE THEREOF FOR INHIBITING HUMAN POLYMERASE THETA” (Repare Therapeutics Inc., priority 2021, published 2025).
Read-outs that look alike come from different tables or passages of the source.

What was measured:
[1] = target: Polθ ATPase enzyme (1-894) (Homo sapiens (Human), UniProt O75417); assay: Polθ ATPase enzymatic assay (3 nM enzyme concentration), ADP-Glo; assay type: biochemical
Polθ ATPase enzyme (1-894), sequence (O75417 1-894): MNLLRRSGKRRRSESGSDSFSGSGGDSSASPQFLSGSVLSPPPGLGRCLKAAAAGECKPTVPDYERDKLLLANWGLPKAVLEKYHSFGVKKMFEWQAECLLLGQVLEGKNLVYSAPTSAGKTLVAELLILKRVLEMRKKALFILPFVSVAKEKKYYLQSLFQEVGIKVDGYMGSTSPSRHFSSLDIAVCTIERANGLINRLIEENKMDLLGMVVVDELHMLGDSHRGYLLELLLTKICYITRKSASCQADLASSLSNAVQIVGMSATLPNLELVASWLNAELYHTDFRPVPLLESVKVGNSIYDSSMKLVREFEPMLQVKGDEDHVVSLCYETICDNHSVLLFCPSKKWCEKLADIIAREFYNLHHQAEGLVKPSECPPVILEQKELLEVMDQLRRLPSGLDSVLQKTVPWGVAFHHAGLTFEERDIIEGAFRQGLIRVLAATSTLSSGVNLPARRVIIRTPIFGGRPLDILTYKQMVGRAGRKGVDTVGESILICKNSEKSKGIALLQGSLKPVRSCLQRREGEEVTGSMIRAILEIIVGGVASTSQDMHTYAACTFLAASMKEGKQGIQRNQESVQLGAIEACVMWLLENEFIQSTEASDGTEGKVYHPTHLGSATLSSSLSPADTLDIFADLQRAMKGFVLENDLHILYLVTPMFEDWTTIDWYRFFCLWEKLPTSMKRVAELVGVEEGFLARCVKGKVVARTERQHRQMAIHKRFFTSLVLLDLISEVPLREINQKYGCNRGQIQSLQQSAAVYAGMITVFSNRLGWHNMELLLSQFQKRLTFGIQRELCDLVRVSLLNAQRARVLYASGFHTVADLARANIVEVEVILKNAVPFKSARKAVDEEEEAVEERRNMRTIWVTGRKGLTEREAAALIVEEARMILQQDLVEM
Protocol: Polθ ATPase enzyme (1-894) at 3 nM is incubated with a 10-point concentration response of inhibitors for 15 min at rt in the following buffer: 50 mM Tris Cl pH 7.5, 10% glycerol, 5 mM DTT, 10 mM MgCl2, 0.1 mg/ml BSA. Following pre-incubation with inhibitors, DNA (Fork C) at 20 nM and ATP at 100 μM are added to start the reaction. Enzymatic reaction proceeds at rt for 60 min. ATP consumption is measured using the ADP-Glo assay from Promega. Luminescence is read on the Envision and IC50 are determined using the variable slope 4-parameters equation.
DNA (Fork C) is made by annealing 3 different oligos containing the following sequence of nucleotides:
Oligos are annealed by heating at 95° C. for 5 min in the following buffer (10 mM Tris-HCl pH7.5, 50 mM NaCl, 1 mM EDTA) and cooled to rt. […]

[2] = target: PolQ ATPase enzyme (1-894) (Homo sapiens (Human), UniProt O75417); assay: Polθ ATPase enzymatic assay (0.5 nM enzyme concentration), ADP-Glo; assay type: biochemical; details: average IC50; 0.5 nM PolQ ATPase enzyme (1-894)
PolQ ATPase enzyme (1-894), sequence (O75417 1-894): as above
How it was run: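 Enzyme (0.5 nM) pre-incubated 15 min at rt with 10-point inhibitor series in 50 mM Tris pH 7.5, 10% glycerol, 5 mM DTT, 10 mM MgCl2, 0.1 mg/ml BSA; reaction started with 20 nM fork DNA and 100 μM ATP, run 180 min at rt. ADP-Glo luminescence; IC50 from 4-parameter variable-slope fit.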

[3] = read-out: IC50 (nM) [PolQ] 3 nM, average IC50, 3 nM PolQ ATPase enzyme (1-894)

Structure (SMILES) | IC50 [1] [nM] | IC50 [2] [nM] | IC50 [1, 3] [nM]
COc1ccc(C#N)cc1-c1cnccc1C(=O)Nc1nnc(C2C[C@H]2c2ccc(C#N)cc2)s1 (mixture of isomers) [Compound 2, N-(5-((1R,2R)-2-(4-cyanophenyl)cyclopropyl)-1,3,4-thiadiazol-2-yl)-3-(5-cyano-2-methoxyphenyl)isonicotinamide] | 3.3 | 2.2 | 
COc1ccc(F)cc1-c1cnccc1C(=O)Nc1nnc([C@@H]2C[C@H]2c2ccc(C#N)cc2)s1 [Compound 1, N-(5-((1R,2R)-2-(4-cyanophenyl)cyclopropyl)-1,3,4-thiadiazol-2-yl)-3-(5-fluoro-2-methoxyphenyl)isonicotinamide] |  | 1.1 | 5.8
COc1ccc(F)cc1-c1cnccc1C(=O)Nc1nnc([C@@H]2C[C@H]2c2ccn(C)n2)s1 [Compound 3, 3-(5-fluoro-2-methoxyphenyl)-N-(5-((1R,2R)-2-(1-methyl-1H-pyrazol-3-yl)cyclopropyl)-1,3,4-thiadiazol-2-yl)isonicotinamide] |  |  | 23
COc1ccc(F)cc1-c1cnccc1C(=O)Nc1nnc([C@@H]2C[C@H]2c2nc3ccccc3n2C)s1 [Compound 4, 3-(5-fluoro-2-methoxyphenyl)-N-(5-((1R,2R)-2-(1-methyl-1H-benzo[d]imidazol-2-yl)cyclopropyl)-1,3,4-thiadiazol-2-yl)isonicotinamide] |  |  | 92
COc1ccc(C#N)cc1-c1cnccc1C(=O)Nc1nnc(C#CC2CCC2)s1 [Compound 5] |  | 1.5 | 2.9
COc1ccc(C#N)cc1-c1cnccc1C(=O)Nc1nnc(C#CC2CC23CC3)s1 (stereo not drawn) [Compound 6, 3-(5-cyano-2-methoxyphenyl)-N-(5-(spiro[2.2]pentan-1-ylethynyl)-1,3,4-thiadiazol-2-yl)isonicotinamide] |  | 0.63 | 2
COc1ccc(C#N)cc1-c1cnccc1C(=O)Nc1nnc(C#CC2COC2)s1 [Compound 7, 3-(5-cyano-2-methoxyphenyl)-N-(5-(oxetan-3-ylethynyl)-1,3,4-thiadiazol-2-yl)isonicotinamide] |  |  | 12
COc1ccc(F)cc1-c1cnccc1C(=O)Nc1nnc(C#Cc2cnn(CC#N)c2)s1 [Compound 8, N-(5-((1-(cyanomethyl)-1H-pyrazol-4-yl)ethynyl)-1,3,4-thiadiazol-2-yl)-3-(5-fluoro-2-methoxyphenyl)isonicotinamide] |  |  | 48
COc1ccc(C#N)cc1-c1cnccc1C(=O)Nc1nnc(C#CC2(N)CC2)s1 [Compound 9] |  |  | 33
COc1ccc(F)cc1-c1cnccc1C(=O)Nc1nnc(C#Cc2cnc(C#N)c(OC)c2)s1 [Compound 10] |  |  | 54
COc1ccc(F)cc1-c1cnccc1C(=O)Nc1nnc(C#Cc2ccc3nccn3n2)s1 [Compound 11] |  |  | 117
COc1ccc(C#N)cc1-c1cnccc1C(=O)Nc1nnc(C#CC2CC2)s1 [Compound 12, 3-(5-cyano-2-methoxyphenyl)-N-(5-(cyclopropylethynyl)-1,3,4-thiadiazol-2-yl)isonicotinamide] |  | 3.5 | 2
COc1c(F)cccc1-c1cnccc1C(=O)Nc1nnc(C#CC2CC2)s1 [Compound 13] |  | 4.2 | 6.9
COc1ccc(F)cc1-c1cnccc1C(=O)Nc1nnc(C#Cc2cnc3cnccn23)s1 [Compound 14] |  |  | 139
COc1ccc(C#N)cc1-c1cn(C)c(=O)cc1C(=O)Nc1nnc(C2C[C@H]2c2ccc(C#N)cc2)s1 (stereo partly drawn) [Compound 15] |  |  | 15
COc1ccc(F)cc1-c1cn(C)c(=O)cc1C(=O)Nc1nnc(C#Cc2cc(C)[nH]n2)s1 [Compound 17] |  | 3.2 | 5.4
COc1ccc(F)cc1-c1cn(C)c(=O)cc1C(=O)Nc1nnc(C#Cc2cnn(C3CCCNC3)c2)s1 (stereo not drawn) [Compound 18] |  |  | 204

Now from value to compound:

IC50 [1] [nM] | IC50 [2] [nM] | IC50 [1, 3] [nM] | Structure (SMILES)
 |  | 27 | COc1ccc(F)cc1-c1cn(C)c(=O)cc1C(=O)Nc1nnc(C#Cc2ccn(C)n2)s1 [Compound 19]
 |  | 21 | COc1ccc(C#N)cc1-c1cn(C)c(=O)cc1C(=O)Nc1nnc(C#CC2CC2)s1 [Compound 20]
 |  | 12 | COc1ccc(F)cc1-c1cn(C)c(=O)cc1C(=O)Nc1nnc(C#CC2CC2)s1 [Compound 21]
 |  | 12 | COc1ccc(F)cc1-n1cncc1C(=O)Nc1nnc(C#CC2CC2)s1 [Compound 22]
 |  | 134 | COc1ccc(C#N)cc1-n1cncc1C(=O)Nc1nnc(C#CC2CC2)s1 [Compound 23]
 | 0.78 | < 1.5 | COc1ccc(C(F)(F)F)cc1-c1cnccc1C(=O)Nc1nnc(C#CC2CC2)s1 [Compound 24]
 | 1.3 | 1.5 | COc1cnc(Cl)cc1-c1cnccc1C(=O)Nc1nnc(C#CC2CC2)s1 [Compound 25]
 | 0.53 | 2.6 | COc1cnc(Cl)cc1-c1cnccc1C(=O)Nc1nnc([C@@H]2C[C@H]2c2ccc(C#N)cc2)s1 [Compound 26, 2′-chloro-N-(5-((1R,2R)-2-(4-cyanophenyl)cyclopropyl)-1,3,4-thiadiazol-2-yl)-5′-methoxy-[3,4′-bipyridine]-4-carboxamide]
 | 2.1 |  | COc1cnc(C(F)F)cc1-c1cc(N2CC(C)(C)N(C)CC2=O)ncc1C(=O)Nc1nnc(C#CC2CC2)s1 [Compound 471]
